Experimental data taken from patent US20260049092A1, “ANTIBACTERIAL COMPOUNDS” (Blacksmith Medicines, Inc., priority 2022, published 2026).
≈ marks a conversion by molar mass, not a printed value. Read-outs that look alike come from different tables or passages of the source.

How the values were obtained:
Test in all cases: Bacterial susceptibility testing (MIC, broth microdilution)
Assay type in all cases: cell-based
[1] = system: E. coli ATCC25922; conditions: Escherichia coli
Procedure, shortened: (§1)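 CLSI broth microdilution was run in cation-adjusted Mueller-Hinton broth with an inoculum of 3×10^5–7×10^5 CFU/mL and 2-fold compound dilutions. Plates were incubated in ambient air at 35° C for 18-24 h. MIC was the lowest concentration preventing visible growth (OD600 nm<0.05).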

[2] = system: K. pneumoniae ATCC13883; conditions: Klebsiella pneumoniae
Procedure, shortened: as §1

[3] = system: P. aeruginosa ATCC27853; conditions: Pseudomonas aeruginosa
Procedure, shortened: as §1

[4] = system: P. aeruginosa PAO1; conditions: Pseudomonas aeruginosa
Procedure, shortened: as §1

[5] = ATCC25922, broth microdilution, cation adjusted Mueller-Hinton Broth, 35° C., 18-24 h, read-out: E. coli ATCC25922 MIC
[6] = ATCC13883, broth microdilution, cation adjusted Mueller-Hinton Broth, 35° C., 18-24 h, read-out: K. pneumoniae ATCC13883 MIC
[7] = ATCC27853, broth microdilution, cation adjusted Mueller-Hinton Broth, 35° C., 18-24 h, read-out: P. aeruginosa ATCC27853 MIC
[8] = PAO1, broth microdilution, cation adjusted Mueller-Hinton Broth, 35° C., 18-24 h, read-out: P. aeruginosa PAO1 MIC

Structure (SMILES)	MIC ([1]; ATCC25922, read-out: E. coli ATCC25922 MIC) [µg/mL]	MIC ([2]; ATCC13883, read-out: K. pneumoniae ATCC13883 MIC) [µg/mL]	MIC ([3]; ATCC27853, read-out: P. aeruginosa ATCC27853 MIC) [µg/mL]	MIC ([4]; PAO1, read-out: P. aeruginosa PAO1 MIC) [µg/mL]	MIC [1, 5] [µg/mL]	MIC [2, 6] [µg/mL]	MIC [3, 7] [µg/mL]	MIC [4, 8] [µg/mL]
C[C@H](O)c1nccn1[C@@H](C#Cc1ccc(-c2ccc(OC3CN(S(C)(=O)=O)C3)cc2)cc1)CO [Compound 89, (S)-2-(2-((S)-1-hydroxyethyl)-1H-imidazol-1-yl)-4-(4′-((1-(methylsulfonyl)azetidin-3-yl)oxy)-[1,1′-biphenyl]-4-yl)but-3-yn-1-ol]	1 (≈ 2.08 µM)	2 (≈ 4.15 µM)	8 (≈ 16.6 µM)	4 (≈ 8.31 µM)	–	–	–	–
C[C@H](O)c1nccn1[C@@H](C#Cc1ccc(-c2ccc([C@H]3COC[C@@H]3O)cc2)cc1)CO (single isomer, unassigned) [Compound 115]	–	–	–	–	1 (≈ 2.39 µM)	1 (≈ 2.39 µM)	8 (≈ 19.1 µM)	2 (≈ 4.78 µM)
C[C@H](O)c1nccn1[C@@H](C#Cc1ccc(-c2ccc(O[C@@H]3COC[C@H]3O)cc2Cl)cc1)CO (single isomer, unassigned) [Compound 47]	–	–	–	–	1 (≈ 2.13 µM)	4 (≈ 8.53 µM)	4 (≈ 8.53 µM)	4 (≈ 8.53 µM)
